Where a name gives a salt, the structure may show the parent alone. Read-outs that look alike come from different tables or passages of the source.
Legend:
[1] = Solubility in various solvents
[2] = Pharmacokinetics of the enantiomers of idazoxan in healthy male subjects; details: for AUC0-∞ of R(−) idazoxan / AUC0-∞ of S(+) idazoxan / CLtot/F of R(−) idazoxan / CLtot/F of S(+) idazoxan / Cmax of R(−) idazoxan / Cmax of S(+) idazoxan / Tmax of R(−) idazoxan / Tmax of S(+) idazoxan / t1/2 of R(−) idazoxan / t1/2 of S(+) idazoxan: single administration of the racemate (20 mg) or of the enantiomer alone (10 mg)
Procedure: Young healthy male subjects were allocated at random to receive a single dose of each of the following substances on one occasion: 20 mg of idazoxan racemate (polymorph of form I); 10 mg of the R(−) enantiomer; 10 mg of the S(+) enantiomer.

[3] = ICH criteria
[4] = tested on: hypothermia induced by guanabenz; experiment: Inhibition of the hypothermia induced by guanabenz; type: in vivo, mice; details: initially, without preincubation
Procedure: (§1) The binding values of the α2-adrenoreceptors for the two enantiomers were evaluated using rat cortical tissue. In addition, the biological activity was evaluated by the inhibition of the hypothermia induced by guanabenz in mice.

α2-adrenoreceptors = experiment: α2-adrenoreceptor binding in rat cortical tissue; details: initially, without preincubation
Procedure: as §1

Compound | AUC0-∞ of R(−) idazoxan [2] [ng·h/mL] | AUC0-∞ of S(+) idazoxan [2] [ng·h/mL] | CLtot/F of R(−) idazoxan [2] [L/h] | CLtot/F of S(+) idazoxan [2] [L/h] | Cmax of R(−) idazoxan [2] [ng/mL] | Cmax of S(+) idazoxan [2] [ng/mL] | Tmax of R(−) idazoxan [2] [h] | Tmax of S(+) idazoxan [2] [h] | t1/2 of R(−) idazoxan [2] [h] | t1/2 of S(+) idazoxan [2] [h] | other results
c1ccc2c(c1)OCC(C1=NCCN1)O2 (stereo not drawn) [Idazoxan hydrochloride, 2-(2-imidazolinyl)-1,4-benzodioxane hydrochloride] |  |  |  |  |  |  |  |  |  |  | solubility in ethanol ([1]; powder): soluble to fairly soluble; solubility in methanol ([1]; powder): readily soluble; solubility in water ([1]; powder): readily soluble
Cl.c1ccc2c(c1)OCC(C1=NCCN1)O2 (stereo not drawn) [Form I] | 58 ± 23 | 44 ± 21 | 170 ± 76 | 245 ± 136 | 11.9 ± 4.6 | 8.3 ± 3.6 | 2.1 ± 0.7 | 2.1 ± 0.7 | 3.3 ± 0.4 | 3.3 ± 0.4 | solubility in water ([1]; batches of the form I): Freely soluble; solubility in ethanol ([1]; batches of the form I, listed as 503): Soluble; Long-term stability (25° C./60% RH, listed as 500): 24 months; Long-term stability (25° C./60% RH, listed as 501): 24 months; Long-term stability (25° C./60% RH, listed as 503): 9 months; Long-term stability (25° C./60% RH, listed as 504): 9 months; Long-term stability (25° C./60% RH, listed as OP2): 24 months; Long-term stability (30° C./70% RH, listed as 500): 24 months; Long-term stability (30° C./70% RH, listed as 501): 24 months; Long-term stability (30° C./70% RH, listed as 503): 6 months; Long-term stability (30° C./70% RH, listed as 504): 6 months; Long-term stability (30° C./70% RH, listed as OP2): 24 months; Long-term stability (40° C./75% RH, listed as 500): 6 months; Long-term stability (40° C./75% RH, listed as 501): 6 months; Long-term stability (40° C./75% RH, listed as 503): 6 months; Long-term stability (40° C./75% RH, listed as 504): 6 months; Long-term stability (40° C./75% RH, listed as OP2): 9 months; photostability [3]: no decomposition
c1ccc2c(c1)OC[C@H](C1=NCCN1)O2 [S(+)Idazoxan] | 11 ± 6 | 27 ± 13 |  | 397 ± 205 | 1.3 ± 0.7 | 7.2 ± 5.1 | 3.7 ± 0.5 | 2.1 ± 0.8 | 3.7 ± 0.4 | 7.8 ± 0.5 | apparent clearance relative to the R(−) enantiomer ([2]; human, in vivo): approximately 1.5 times; distribution relative to the R(−) enantiomer ([2]; human, in vivo): approximately 1.5 times; t1/2 for conversion of S(+) to R(−) ([2]; in vivo): 4 h; effectiveness in the antagonism of the hypothermia relative to the R(−) form [4]: 15 times; binding affinity relative to the R(−) form (α2-adrenoreceptors): ten times greater
c1ccc2c(c1)OC[C@@H](C1=NCCN1)O2 [R(−) Idazoxan] | 43 ± 19 | 14 ± 8 | 230 ± 92 |  | 10.2 ± 3.9 | 1.6 ± 1.0 | 2.5 ± 0.5 | 4.0 ± 0 | 3.1 ± 0.6 | 4.1 ± 0.5 | 

From US8476307B2, “Pharmaceutical composition based on idazoxan, salts, hydrates or polymorphs thereof” (Pierre Fabre Medicament, priority 2003, dated 2013)
